Experimental data: US5677459A, “Methods for the preparation of modulators of acetylcholine receptors” (Sibia Neurosciences, Inc., priority 1995, dated 1997)
Where two headings read alike, the source gives them in different places.

Columns and labels:
[1] = tested on: rats with unilateral 6-hydroxydopamine lesions of the nigrostriatal dopamine pathway; type: in vivo, rat (male Sprague-Dawley); details: rat, in vivo
Method: Selective lesions of the brain dopamine pathway using the neurotoxin 6-hydroxydopamine (6-OHDA) in rats can be used as an experimental approach to Parkinson's disease. Unilateral lesions of the nigrostriatal dopamine pathway induce a postural asymmetry which becomes manifested as rotation when the animals are activated by dopamine releasers or dopamine agonists. When amphetamine and other stimulant drugs that induce pre-synaptic release of dopamine from intact nerve terminals are administered, the rats rotate in a direction ipsilateral to the lesion. In contrast, when the rats are injected with post-synaptic dopamine receptor agonists, such as apomorphine, they turn in a contralateral direction, due to the development of supersensitive dopamine receptors in the lesioned side. Thus, the 6-OHDA model can be used to determine if a suspected dopaminergic agent is active, and to differentiate whether such action is pre- or post-synaptic.
The effects of invention compounds on rotational behavior in 6-hydroxydopamine denervated rats were evaluated using the procedure of Ungerstedt and Arbutknott, Brain Res. 24:485-493 (1970). Male Sprague-Dawley rats (Zivic Miller) weighing 170-200 gm were used in the 6-OHDA procedure. The ascending nigrostriatal dopamine pathway was lesioned by unilateral stereotaxic injection of 6-OHDA (8.0 μg) into one substantia nigra. All injections of 6-OHDA were preceded by desmethylimipramine (25 mg/kg i.p.) and pargyline (75 mg/kg i.p.) approximately 30 minutes prior to undergoing stereotaxic surgery for 6-OHDA infusion into the substantia nigra. After one week of recovery from surgery, the effectiveness of the lesions was verified by noting the response of the animals to apomorphine (0.2 mg/kg, s.c.). Only rats with a minimum rate of 80 contralateral turns per 30 minutes (a sign of more than 80-90% dopamine depletion after a 6-OHDA lesion) were used. Two weeks later, the selected rats were tested with invention and reference compounds using an automated rotometer system to record the number and direction of rotations. In order to distinguish spontaneous (non-specific)rotations from induced rotations (specific to the effect of the drug), each rat was used as its own control, employing the following procedure:
The rat was placed in the rotometer system for acclimatation for 15 minutes, the vehicle administered subcutaneously, the rat's rotations recorded for one hour, then test compound was administered s.c. and rotations again recorded for one hour. The number of ipsilateral rotations induced by vehicle was then compared to the number of ipsilateral rotations induced by test compound. Statistical analysis of the data was carried out using Student's t-test (paired).

[2] = tested on: ^3 H-Dopamine release, rat olfactory tubercles; test: Ligand-stimulated ^3 H-dopamine release from rat olfactory tubercles; type: cell-based; details: Nicotine concentration was 100 μM
Method: (§1) Measurement of ^3 H-dopamine release from rat striatal slices was performed according to the method of Sacaan et al. (J. Neurochem. 59:245 (1992)). Male Sprague-Dawley rats (250-300 g) were decapitated and the striata or olfactory tubercles dissected quickly on a cold glass surface. The tissue was chopped to a thickness of 300 μm with a McIlwain tissue chopper. After chopping again at right angles the tissue was dispersed and incubated for 10 min. at 37° C. in oxygenated Kreb's buffer. ^3 H-Dopamine (40 Ci/mmol, NEN- Dupont, Boston, Mass.) was added (50 nM) and the tissue was incubated for 30 min. in Kreb's buffer containing 10 μM pargyline and 0.5 mM ascorbic acid. Aliquots of the minced tissue were then transferred to chambers of a Brandel Superfusion system in which the tissue was supported on Whatman GF/B filter discs. The tissue was then superfused with buffer at a constant flow rate of 0.3 ml/min by means of a Brandel peristaltic pump. The perfusate was collected in plastic scintillation vials in 3-min fractions, and the radioactivity was estimated by scintillation spectrophotometry. The superfusate for the first 120 min was discarded. After two baseline fractions had been collected, the superfusion buffer was switched to fresh buffer with or without compound of interest. At the end of the experiment the filter and the tissue were removed, and the radiolabeled neurotransmitter content was estimated after extraction into scintillation fluid. The fractional efflux of radiolabeled neurotransmitter was estimated as the amount of radioactivity in the perfusate fraction relative to the total amount in the tissue.
(§2) Results of studies of the effects of an invention compound (as compared to the effect of nicotine) on the release of neurotransmitters from rat brain slices are presented in Table II. Results presented in Part A of the Table are expressed as the percent fractional release and results presented in Part B of the Table are expressed as a percentage, relative to nicotine response.

[3] = tested on: ^3 H-Dopamine release, rat striatal slices; test: Ligand-stimulated ^3 H-dopamine release from rat striatal slices; type: cell-based
Method: as §1, §2

rats = test: Locomotor activity assay; type: in vivo, rat (male Sprague-Dawley); details: Rattus norvegicus, sc, 1 mg/kg salt, s.c.
Method: This assay can be used to assess the primary effect of a compound on general motor activity. A decrease in locomotor activity is indicative of a possible sedative effect on the animal, whereas an increase in locomotor activity is indicative of a stimulant effect on the animal.
Locomotor activity of rats (male Sprague-Dawley (Harlan) weighing 200-250 gm) was measured for 2 hrs in photocell cages immediately after administration of the invention compound. Prior to the test day, the animals were placed in the activity cages for 3 hrs to familiarize them with the experimental environment. On the test day, the animals were placed in the photocell cages and then injected with compound 1.5 hrs later.
The photocell cages were standard rodent cages (30 cm×20 cm×40 cm) with four infrared beams crossing the long axis. The animals were under no motivational constraints and were free to move around. Movements from one infrared beam to another (ambulation) were called "crossover"; successive interruptions of the same beam (vertical and other movements such as grooming) were called "general activity."

[4] = tested on: ^3 H-Norepinephrine release, rat thalamus slices; test: Ligand-stimulated ^3 H-norepinephrine release from rat thalamus slices; type: cell-based; details: Nicotine concentration was 100 μM
Method: as §1
(§3) Following essentially the same procedure as set forth above, the amount of ^3 H-norepinephrine released from rat hippocampus, thalamus and prefrontal cortex slices superfused with buffer containing (or lacking) compounds of interest was also measured.
as §2

[5] = tested on: ^3 H-Norepinephrine release, rat prefrontal cortex slices; test: Ligand-stimulated ^3 H-norepinephrine release from rat prefrontal cortex slices; type: cell-based; details: in vitro slices, 300 μM
Method: as §1, §3, §2

[6] = tested on: ^3 H-Norepinephrine release, rat hippocampus slices; test: Ligand-stimulated ^3 H-norepinephrine release from rat hippocampus slices; type: cell-based
Method: as §1, §3, §2

Question: With `CN1CCCC1c1cccnc1` (stereo not drawn) [Nicotine, nicotine, reference compound] as the compound, how does the “Percent change from control (ipsilateral rotations)” value [1] read?
Answer: +357

Question: What about the “percent fractional release, ^3 H-Dopamine, Olfactory Tubercles” value [2] of the same compound?
Answer: 5.61%

Question: And the “percent fractional release, ^3 H-Dopamine, Striatum” value ([3]; Nicotine concentration was 100 μM)?
Answer: 1.84%

Question: And the Emax at 10 µM ([3]; Rattus norvegicus, nicotine itself at 10 μM (reference), read-out: % of Nicotine Response, ^3 H-Dopamine, Striatum)?
Answer: 100%

Question: What about the change in vivo at 1 mg/kg (rats; 1 h, 0-60 min, read-out: Ambulation (cross overs), percent of change from control) of the same compound?
Answer: 169%

Question: What about the change in vivo at 1 mg/kg (rats; 1 h, 0-60 min, read-out: General Activity (beam breaks), percent of change from control) of the same compound?
Answer: 27%

Question: And the change in vivo at 1 mg/kg (rats; 2 h, 60-120 min, read-out: Ambulation (cross overs), percent of change from control)?
Answer: 163%

Question: What about the change in vivo at 1 mg/kg (rats; 2 h, 60-120 min, read-out: General Activity (beam breaks), percent of change from control) of the same compound?
Answer: 71%

Question: And the “percent fractional release, ^3 H-Norepinephrine, Thalamus” value [4]?
Answer: 1.83%

Question: What about the “percent fractional release, ^3 H-Norepinephrine, Prefrontal Cortex” value [5] of the same compound?
Answer: 2.32%

Question: What about the Emax at 300 µM ([6]; Rattus norvegicus, nicotine 300 μM = 100, read-out: % of Nicotine Response, ^3 H-Norepinephrine, Hippocampus) of the same compound?
Answer: 100%

Question: And the “percent fractional release, ^3 H-Norepinephrine, Hippocampus” value ([6]; in vitro slices, 300 μM)?
Answer: 6.19%
